Calls of active or inactive are those of the source. The rule behind the calls is not given here.

For the series, the system named is CCRIS mutagenicity, Ames/micronucleus/aberration tests. Description: CCRIS mutagenicity studies.
[1] abbreviates: Test System: AMES SALMONELLA TYPHIMURIUM, Strain/Indicator: TA98, Metabolic Activation: NONE, Method: PREINCUBATION
[2] abbreviates: Test System: AMES SALMONELLA TYPHIMURIUM, Strain/Indicator: TA100, Metabolic Activation: NONE, Method: PREINCUBATION
[3] abbreviates: Test System: AMES SALMONELLA TYPHIMURIUM, Strain/Indicator: TA1535, Metabolic Activation: NONE, Method: PREINCUBATION
Where [4] appears, read: Test System: AMES SALMONELLA TYPHIMURIUM, Strain/Indicator: TA98, Metabolic Activation: NONE, Method: STANDARD PLATE.
Setting [5] is: Test System: AMES SALMONELLA TYPHIMURIUM, Strain/Indicator: TA98, Metabolic Activation: RAT, LIVER, S-9, AROCLOR 1254, Method: STANDARD PLATE.
Setting [6] is: Test System: AMES SALMONELLA TYPHIMURIUM, Strain/Indicator: TA100, Metabolic Activation: NONE, Method: STANDARD PLATE.
The mark [7] stands for this setting: Test System: AMES SALMONELLA TYPHIMURIUM, Strain/Indicator: TA100, Metabolic Activation: RAT, LIVER, S-9, AROCLOR 1254, Method: STANDARD PLATE.
[8] abbreviates: Test System: AMES SALMONELLA TYPHIMURIUM, Strain/Indicator: TA102, Metabolic Activation: NONE, Method: STANDARD PLATE.
The mark [9] stands for this setting: Test System: AMES SALMONELLA TYPHIMURIUM, Strain/Indicator: TA102, Metabolic Activation: RAT, LIVER, S-9, AROCLOR 1254, Method: STANDARD PLATE.

Consider `O=C(Br)CBr`, for which the mutagenic call runs as follows: (End Point: IN VITRO CHROMOSOMAL ABERRATIONS, Test System: CHL CELLS, Metabolic Activation: RAT, LIVER, S-9, SODIUM PHENOBARBITAL AND 5,6-BENZOFLAVONE) “inactive; negative; authors report equivocal results for structural changes at 0.02 mg/ml”; under setting [1], “inactive; negative”; (Test System: AMES SALMONELLA TYPHIMURIUM, Strain/Indicator: TA98, Metabolic Activation: RAT, LIVER, S-9, PHENOBARBITAL AND BETA-NAPHTHOFLAVONE, Method: PREINCUBATION) “inactive; negative”; under setting [2], “inactive; negative”; (Test System: AMES SALMONELLA TYPHIMURIUM, Strain/Indicator: TA100, Metabolic Activation: RAT, LIVER, S-9, PHENOBARBITAL AND BETA-NAPHTHOFLAVONE, Method: PREINCUBATION) “inactive; negative”; (Test System: AMES SALMONELLA TYPHIMURIUM, Strain/Indicator: TA102, Metabolic Activation: NONE, Method: PREINCUBATION) “inactive; negative”. Also, the mutagenic call is, setting by setting: (Test System: AMES SALMONELLA TYPHIMURIUM, Strain/Indicator: TA102, Metabolic Activation: RAT, LIVER, S-9, PHENOBARBITAL AND BETA-NAPHTHOFLAVONE, Method: PREINCUBATION) “inactive; negative”; (Test System: AMES SALMONELLA TYPHIMURIUM, Strain/Indicator: TA104, Metabolic Activation: NONE, Method: PREINCUBATION) “active; positive”; (Test System: AMES SALMONELLA TYPHIMURIUM, Strain/Indicator: TA104, Metabolic Activation: RAT, LIVER, S-9, PHENOBARBITAL AND BETA-NAPHTHOFLAVONE, Method: PREINCUBATION) “active; positive”; under setting [3], “inactive; negative”; (Test System: AMES SALMONELLA TYPHIMURIUM, Strain/Indicator: TA1535, Metabolic Activation: RAT, LIVER, S-9, PHENOBARBITAL AND BETA-NAPHTHOFLAVONE, Method: PREINCUBATION) “inactive; negative”; (Test System: AMES SALMONELLA TYPHIMURIUM, Strain/Indicator: TA1537, Metabolic Activation: NONE, Method: PREINCUBATION) “inactive; negative”. Besides, the mutagenic call runs as follows: (Test System: AMES SALMONELLA TYPHIMURIUM, Strain/Indicator: TA1537, Metabolic Activation: RAT, LIVER, S-9, PHENOBARBITAL AND BETA-NAPHTHOFLAVONE, Method: PREINCUBATION) “inactive; negative”; (Test System: E. COLI, Strain/Indicator: WP2UVRA/PKM101, Metabolic Activation: RAT, LIVER, S-9, PHENOBARBITAL AND BETA-NAPHTHOFLAVONE, Method: PREINCUBATION) “active; positive”; (Test System: E. COLI, Strain/Indicator: WP2UVRA, Metabolic Activation: NONE, Method: PREINCUBATION) “inactive; negative”; (Test System: E. COLI, Strain/Indicator: WP2UVRA, Metabolic Activation: RAT, LIVER, S-9, PHENOBARBITAL AND BETA-NAPHTHOFLAVONE, Method: PREINCUBATION) “inactive; negative”.
For the molecule `COc1cc([N+](=O)[O-])c(O)c(C(C)(C)C)c1`, the mutagenic call is “inactive; negative” under setting [4], “inactive; negative” under setting [5], “inactive; negative” under setting [6] and “inactive; negative” under setting [7].
On to `Nc1ccc(NCCO)c([N+](=O)[O-])c1`, for which the mutagenic call by setting is: (Test System: AMES SALMONELLA TYPHIMURIUM, Strain/Indicator: TA97, Metabolic Activation: HAMSTER, LIVER, S-9, AROCLOR 1254 (10%), Method: PREINCUBATION) “active; positive”; (Test System: AMES SALMONELLA TYPHIMURIUM, Strain/Indicator: TA97, Metabolic Activation: HAMSTER, LIVER, S-9, AROCLOR 1254, Method: PREINCUBATION) “active; positive”; (Test System: AMES SALMONELLA TYPHIMURIUM, Strain/Indicator: TA97, Metabolic Activation: NONE, Method: PREINCUBATION) “active; positive”; (Test System: AMES SALMONELLA TYPHIMURIUM, Strain/Indicator: TA97, Metabolic Activation: RAT, LIVER, S-9, AROCLOR 1254 (10%), Method: PREINCUBATION) “active; positive”; (Test System: AMES SALMONELLA TYPHIMURIUM, Strain/Indicator: TA97, Metabolic Activation: RAT, LIVER, S-9, AROCLOR 1254, Method: PREINCUBATION) “active; positive”; (Test System: AMES SALMONELLA TYPHIMURIUM, Strain/Indicator: TA98, Metabolic Activation: HAMSTER, LIVER, S-9, AROCLOR 1254 (10%), Method: PREINCUBATION) “active; positive”. The mutagenic call is, setting by setting: (Test System: AMES SALMONELLA TYPHIMURIUM, Strain/Indicator: TA98, Metabolic Activation: HAMSTER, LIVER, S-9, AROCLOR 1254, Method: PREINCUBATION) “active; positive”; under setting [1], “active; positive”; (Test System: AMES SALMONELLA TYPHIMURIUM, Strain/Indicator: TA98, Metabolic Activation: RAT, LIVER, S-9, AROCLOR 1254 (10%), Method: PREINCUBATION) “active; positive”; (Test System: AMES SALMONELLA TYPHIMURIUM, Strain/Indicator: TA98, Metabolic Activation: RAT, LIVER, S-9, AROCLOR 1254, Method: PREINCUBATION) “active; positive”; (Test System: AMES SALMONELLA TYPHIMURIUM, Strain/Indicator: TA100, Metabolic Activation: HAMSTER, LIVER, S-9, AROCLOR 1254 (10%), Method: PREINCUBATION) “active; positive”; (Test System: AMES SALMONELLA TYPHIMURIUM, Strain/Indicator: TA100, Metabolic Activation: HAMSTER, LIVER, S-9, AROCLOR 1254, Method: PREINCUBATION) “active; positive”. For the same molecule, the mutagenic call by setting is: under setting [2], “active; positive”; (Test System: AMES SALMONELLA TYPHIMURIUM, Strain/Indicator: TA100, Metabolic Activation: RAT, LIVER, S-9, AROCLOR 1254 (10%), Method: PREINCUBATION) “active; positive”; (Test System: AMES SALMONELLA TYPHIMURIUM, Strain/Indicator: TA100, Metabolic Activation: RAT, LIVER, S-9, AROCLOR 1254, Method: PREINCUBATION) “active; positive”; (Test System: AMES SALMONELLA TYPHIMURIUM, Strain/Indicator: TA1535, Metabolic Activation: HAMSTER, LIVER, S-9, AROCLOR 1254 (10%), Method: PREINCUBATION) “inactive; negative”; (Test System: AMES SALMONELLA TYPHIMURIUM, Strain/Indicator: TA1535, Metabolic Activation: HAMSTER, LIVER, S-9, AROCLOR 1254, Method: PREINCUBATION) “inactive; negative”; under setting [3], “inactive; negative”. The mutagenic call runs as follows: (Test System: AMES SALMONELLA TYPHIMURIUM, Strain/Indicator: TA1535, Metabolic Activation: RAT, LIVER, S-9, AROCLOR 1254 (10%), Method: PREINCUBATION) “inactive; negative”; (Test System: AMES SALMONELLA TYPHIMURIUM, Strain/Indicator: TA1535, Metabolic Activation: RAT, LIVER, S-9, AROCLOR 1254, Method: PREINCUBATION) “inactive; negative”.
In the case of `NN(Cc1ccccc1)Cc1ccccc1`, the mutagenic call was “inactive; negative” under setting [6], “inactive; negative” under setting [7], “inactive; negative” under setting [8] and “inactive; negative” under setting [9].
With `Fc1cccc(F)n1`, the mutagenic call was “inactive; negative” (Test System: AMES SALMONELLA TYPHIMURIUM, Strain/Indicator: TA97, Metabolic Activation: NONE, Method: STANDARD PLATE); “inactive; negative” (Test System: AMES SALMONELLA TYPHIMURIUM, Strain/Indicator: TA97, Metabolic Activation: RAT, LIVER, S-9, AROCLOR 1254, Method: STANDARD PLATE); “inactive; negative” under setting [4]; “inactive; negative” under setting [5]; “inactive; negative” under setting [6]; “inactive; negative” under setting [7]. The mutagenic call is, setting by setting: under setting [8], “inactive; negative”; under setting [9], “inactive; negative”.

For the origin of these results see PubChem BioAssay AID1259407 (Chemical Carcinogenesis Research Information System (CCRIS), 2018).
